# Experimental data: BindingDB's records for doi:10.1016/j.bmcl.2008.10.099 (Bristol-Myers Squibb, 2008)
# Molecular target: Potassium voltage-gated channel subfamily A member 5 (Homo sapiens, UniProt P22460)
# Test: Inhibition of human Kv1.5 channel expressed in mouse L929 cells by EP voltage clamp technique
# Chain of Potassium voltage-gated channel subfamily A member 5 (P22460 whole entry): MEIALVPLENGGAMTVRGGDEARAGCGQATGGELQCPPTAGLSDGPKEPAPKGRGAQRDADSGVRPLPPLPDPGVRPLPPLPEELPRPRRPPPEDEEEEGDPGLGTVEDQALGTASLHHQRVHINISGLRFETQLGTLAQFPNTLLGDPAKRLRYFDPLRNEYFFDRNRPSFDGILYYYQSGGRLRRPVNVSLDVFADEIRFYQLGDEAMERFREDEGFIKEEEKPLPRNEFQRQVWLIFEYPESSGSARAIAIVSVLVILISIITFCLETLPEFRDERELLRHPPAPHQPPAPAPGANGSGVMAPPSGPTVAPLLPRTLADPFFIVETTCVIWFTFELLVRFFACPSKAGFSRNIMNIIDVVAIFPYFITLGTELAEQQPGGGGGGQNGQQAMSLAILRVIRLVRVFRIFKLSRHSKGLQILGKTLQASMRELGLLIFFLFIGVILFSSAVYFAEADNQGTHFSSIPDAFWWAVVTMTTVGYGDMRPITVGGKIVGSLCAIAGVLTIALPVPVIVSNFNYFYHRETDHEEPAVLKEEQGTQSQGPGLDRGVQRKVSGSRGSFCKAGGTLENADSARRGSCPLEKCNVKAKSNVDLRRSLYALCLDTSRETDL
row,IC50 [nM],SMILES
1,190,"CC1=Nc2ccnn2C(c2ccc(Cl)c(Cl)c2)C1C(=O)N1CCCCCC1 (stereo unspecified) [azepan-1-yl(7-(3,4-dichlorophenyl)-5-methyl-4,7-dihydropyrazolo[1,5-a]pyrimidin-6-yl)methanone]"
2,200,"CC1=Nc2ccnn2C(c2sc3ccccc3c2C)C1C(=O)N1CCN(c2ccc(F)cc2)CC1 (stereo unspecified) [(4-(4-fluorophenyl)piperazin-1-yl)(5-methyl-7-(3-methylbenzo[b]thiophen-2-yl)-4,7-dihydropyrazolo[1,5-a]pyrimidin-6-yl)methanone]"
3,160,"CC1=Nc2ccnn2C(c2cccc(Cl)c2Cl)C1C(=O)N1CCN(c2ccc(F)cc2)CC1 (stereo unspecified) [(7-(2,3-dichlorophenyl)-5-methyl-4,7-dihydropyrazolo[1,5-a]pyrimidin-6-yl)(4-(4-fluorophenyl)piperazin-1-yl)methanone]"
4,160,"CC1=Nc2ccnn2C(c2cc3ccccc3o2)C1C(=O)N1CCN(c2ccc(F)cc2)CC1 (stereo unspecified) [(7-(benzofuran-2-yl)-5-methyl-4,7-dihydropyrazolo[1,5-a]pyrimidin-6-yl)(4-(4-fluorophenyl)piperazin-1-yl)methanone]"
5,160,"CC1=Nc2ccnn2C(c2ccc(Cl)c(Cl)c2)C1C(=O)NCc1ccccc1 (stereo unspecified) [N-benzyl-7-(3,4-dichlorophenyl)-5-methyl-4,7-dihydropyrazolo[1,5-a]pyrimidine-6-carboxamide]"
6,440,"CCCCNC(=O)C1C(C)=Nc2ccnn2C1c1ccc(Cl)c(Cl)c1 (stereo unspecified) [N-butyl-7-(3,4-dichlorophenyl)-5-methyl-4,7-dihydropyrazolo[1,5-a]pyrimidine-6-carboxamide]"
7,200,"COC[C@@H]1CCCN1C(=O)C1C(C)=Nc2ccnn2C1c1ccc(Cl)c(Cl)c1 (stereo partly drawn) [(7-(3,4-dichlorophenyl)-5-methyl-4,7-dihydropyrazolo[1,5-a]pyrimidin-6-yl)((S)-2-(methoxymethyl)pyrrolidin-1-yl)methanone]"
8,160,"CC1=Nc2ccnn2[C@H](c2cccc(Cl)c2Cl)C1C(=O)N1CCN(c2ccc(F)cc2)CC1 (stereo partly drawn) [(S)-(7-(2,3-dichlorophenyl)-5-methyl-4,7-dihydropyrazolo[1,5-a]pyrimidin-6-yl)(4-(4-fluorophenyl)piperazin-1-yl)methanone]"
9,190,"CC1=Nc2ccnn2C(c2cccc(Cl)c2)C1C(=O)N1CCN(c2ccc(F)cc2)CC1 (stereo unspecified) [(7-(3-chlorophenyl)-5-methyl-4,7-dihydropyrazolo[1,5-a]pyrimidin-6-yl)(4-(4-fluorophenyl)piperazin-1-yl)methanone]"
10,440,"CCN(CC)C(=O)C1C(C)=Nc2ccnn2C1c1ccc(Cl)c(Cl)c1 (stereo unspecified) [7-(3,4-dichlorophenyl)-N,N-diethyl-5-methyl-4,7-dihydropyrazolo[1,5-a]pyrimidine-6-carboxamide]"
11,440,"CC1=Nc2ccnn2C(c2ccc(Cl)cc2)C1C(=O)N1CCN(c2ccc(F)cc2)CC1 (stereo unspecified) [(7-(4-chlorophenyl)-5-methyl-4,7-dihydropyrazolo[1,5-a]pyrimidin-6-yl)(4-(4-fluorophenyl)piperazin-1-yl)methanone]"
